According to patent publication US8951976B2, “Progression inhibitor for disease attributed to abnormal accumulation of liver fat” (Kissei Pharmaceutical Co., Ltd., priority 2004, dated 2015):
Each block holds one molecule with its values, some of them ahead of it.

Tests used:
[1] = biological target: T1, SGLT2 (Mus musculus, UniProt Q923I7); test: Test to confirm inhibitory effect on accumulation of liver lipids in KKAy mice bearing fatty liver; type: in vivo, KKA^y mice
T1 construct: Using KKA^y mice (KKAy/Ta Jcl, CLEA Japan, Inc.) as experimental animals; tissue CLEA Japan, Inc. KKAy/Ta Jcl; host or cells: living KKAy mice (whole animal; SGLT2 acts in kidney)
T1 sequence (Q923I7 1-670): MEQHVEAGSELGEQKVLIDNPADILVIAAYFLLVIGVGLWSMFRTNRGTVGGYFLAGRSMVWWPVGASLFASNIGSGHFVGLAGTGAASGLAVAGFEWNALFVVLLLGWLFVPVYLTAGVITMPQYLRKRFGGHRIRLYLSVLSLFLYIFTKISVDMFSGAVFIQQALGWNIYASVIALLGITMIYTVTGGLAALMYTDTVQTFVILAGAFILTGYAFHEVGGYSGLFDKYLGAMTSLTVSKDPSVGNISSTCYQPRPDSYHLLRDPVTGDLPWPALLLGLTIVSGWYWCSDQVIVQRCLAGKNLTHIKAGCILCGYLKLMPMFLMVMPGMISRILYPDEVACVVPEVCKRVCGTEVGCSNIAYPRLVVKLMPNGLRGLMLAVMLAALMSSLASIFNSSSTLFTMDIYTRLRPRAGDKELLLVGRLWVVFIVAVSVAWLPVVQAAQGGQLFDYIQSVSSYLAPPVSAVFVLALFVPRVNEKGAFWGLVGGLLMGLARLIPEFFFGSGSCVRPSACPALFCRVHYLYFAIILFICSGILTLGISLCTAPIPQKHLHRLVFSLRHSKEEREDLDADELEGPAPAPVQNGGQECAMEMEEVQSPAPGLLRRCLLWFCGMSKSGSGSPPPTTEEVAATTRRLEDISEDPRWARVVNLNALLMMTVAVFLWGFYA
Method: Using KKA^y mice (KKAy/Ta Jcl, CLEA Japan, Inc.) as experimental animals, inhibitory effects on accumulation of lipids in liver based on SGLT2 inhibitory effects were evaluated. KKA^y mice bearing fatty liver were prepared as follows.
Female 10-week-old KKA^y mice were bred preparatorily for 4 weeks. During preparatory breeding until 4 days before grouping, the mice were fed on a pellet CE-2 diet for laboratory animal (CLEA Japan, Inc.) under free feeding. From 4 days before grouping, the food was changed to a powdered CE-2 diet for laboratory animal (CLEA Japan, Inc.). At the age of 14 weeks, body weight, blood glucose level and plasma alanine aminotransferase level (ALT) were measured for grouping. The mice were grouped (5 animals in each group) so that in any of these three laboratory values no significant difference was observed between the two groups. In the second group, the mice were fed on a powdered CE-2 diet for laboratory animal (CLEA Japan, Inc.) containing 1000 ppm of 2-(4-methoxybenzyl)phenyl 6-O-ethoxycarbonyl-β-D-glucopyranoside (hereinafter referred to as Compound A) as a SGLT2 inhibitor for 11 days, and then triglyceride contents in liver were measured.
Method of measurement of liver triglyceride content was described as follows. • 1) Ice-cold saline (Otsuka Pharmaceutical Co., Ltd.) was added to liver in the proportion of 4 mL of ice-cold saline to 1 g of the liver, and then a homogenized suspension was prepared in a pestle homogenizer. • 2) To 100 μL of the suspension 1), 800 μL of Folch reagent (chloroform:methanol=2:1) was added and mixed vigorously, and total lipids was extracted. • 3) The mixture 2) was centrifuged (3000 rpm, for 10 min, at room temperature) using a cooled centrifuge (KUBOTA8900, KUBOTA Corporation). • 4) The lower layer after centrifugation in 3) was collected and transferred to another container, and that is referred to as Solution (A). • 5) To the upper layer after centrifugation in 3), 150 μL of Folch reagent was added and mixed vigorously, and centrifugation by the operation identical to that in 3) was performed. […]

[2] = cited from earlier work

- lipid accumulation in liver ([1]; administration to KKA^y mice bearing fatty liver, compared to drug-untreated mice): significantly suppressed
- Liver triglyceride content ([1]; female KKA^y mice bearing fatty liver, diet containing 1000 ppm for 11 days, mean ± standard error of the mean, * significant (5% or less) vs drug-untreated group): 25.4 ± 3.6* mg/g liver
- increase of lipid accumulative amount in liver ([1]; orally administered to rat (so in the source), in comparison with no administration): inhibited significantly
Structure (SMILES): CCOC(=O)OC[C@H]1O[C@@H](Oc2ccccc2Cc2ccc(OC)cc2)[C@H](O)[C@@H](O)[C@@H]1O [Compound A, 2-(4-methoxybenzyl)phenyl 6-O-ethoxycarbonyl-β-D-glucopyranoside]

Structure (SMILES): CCOC(=O)C(C)(C)Oc1ccc(Cl)cc1 [clofibrate]
- lipid accumulation in liver as a side effect ([2]; Patent Reference 22, while it lowers neutral fat or cholesterol in blood): causes lipid accumulation in liver

Structure (SMILES): CCCCNC(=O)NS(=O)(=O)c1ccc(C)cc1 [tolbutamide]
- suppressive effects on lipid accumulation in liver ([2]; non-Patent Reference 7): does not exhibit suppressive effects
